{"source": "patent US9000125B2", "about": "“Approach to treat intraocular hypertension” (priority 2006, dated 2015)", "test_system": "intraocular pressure (IOP) of the rabbit eye", "assay": "IOP (TonoPen) in anaesthetized normal NZW rabbits after deposition/injection beneath the Tenon's capsule", "details": "Example 9; 50 or 100 μg below the Tenon's capsule", "note": "No end group written: not given here.", "data": [{"substance": "CHSKTR [CHSKTR]", "values": [{"measurement": "local or systemic side effects", "value": "without inducing any local or systemic side effects"}]}]}
